Earlier results in US20240315956A1, “METHOD OF PRODUCTION OF THE COMPOSITION OF CYCLOOXYGENASE-2 (COX-2) INHIBITORS” (US NANO FOOD & DRUG INC, priority 2021, published 2024).

Cc1ccc(-c2cc(C(F)(F)F)nn2-c2ccc(S(N)(=O)=O)cc2)cc1 [Celecoxib]
solubility in water: practically insoluble in water

CCCN1CC(c2ccc(S(C)(=O)=O)cc2)=C(c2ccc(C)cc2)C1=O [Imrecoxib]
solubility in water: practically insoluble in water

CCC1(C)CC(=O)NC1=O (stereo not shown) [ethosuximide]
pKa: 10.73

Nc1nnc(-c2cccc(Cl)c2Cl)c(N)n1 [lamotrigine]
pKa: 15
